Laboratory results: paper PMC12731105, “Design and Synthesis of New Quinoxaline Analogs to Regenerate Sensory Auditory Hair Cells” (Cells, 2025)

Experiments:
mouse organ of Corti = assay: EdU proliferation assay in the mouse organ of Corti; format: in vivo; conditions: mice, single IP 300 mg/kg; for EdU-positive cells in the OC at 72 h: 72 h treatment group; for EdU-positive cells in the OC at 24 h and 48 h: EdU 50 mg/kg, 4 h, unpaired T-test, p < 0.05
Protocol: (§1) C57BL/6J male and female mice between postnatal day 24 and 30 P-24-30) were randomized into control and experimental groups (9 mice per group per compound), with each experimental group receiving a single intraperitoneal (IP) injection of Qx-294 or Qx-301 at a dose of 300 mg/kg body weight, dissolved in dimethyl sulfoxide (DMSO). Controls consisted of treatment with DMSO alone (vehicle). A total of 90 adult wild-type C57/BL6 mice were used in this study. Based on the analysis, animals were examined at various times following treatment as described below.
In vitro cell proliferation effects of all ten initial compounds (Figure 1A,B) were tested on HEI-OC1, Neuro-2A and HT-1080 cells by TACS® 3-(4,5-dimethylthiazol-2-yl)-2,5-diphenyltetrazolium bromide (MTT) Cell Proliferation Assay (R&D Systems, Minneapolis, MN, USA, 4890-025-K), following the manufacturer’s protocol. Absorbance was measured with SpectraMax® M Series Multi-Mode Microplate Reader with Soft Max Pro 7.2 GxP Software (Molecular Devices, Sunnyvale, CA, USA), and the average OD in control cells was taken as 100% of viability. Upon selecting the most viable compounds (Qx-294 and Qx-301), we proceeded with in vivo experiments. For zebrafish treatment, animals were incubated for varied times with different concentrations (50, 100, 150, 200, 250, and 300 μg/mL) of Qx-294 or Qx-301 diluted in swimming (E3) media or administered via IP injections. Mice treatment followed the same procedures as described in [18]. Following treatment, animals or tissue samples were incubated in Click-it EdU or Click-it Plus TUNEL kits (Thermo Scientific, Waltham, MA, USA), following the manufacturer’s instructions to label proliferating and apoptotic cells, respectively.
Cell numbers in mouse cochleae or fish, as well as fish neuromast morphologies, were evaluated in 25 zebrafish per drug and treatment group across three experimental runs. For mouse analyses, 18 cochleae (from 9 mice) per treatment and three experimental repetitions were examined. Images were analyzed at 200X magnification, obtained from different neuromasts and cochlear regions (apex, middle, and base). HCs were quantified in the mouse OC by counting M7a-positive cells, with HC identity further confirmed by phalloidin-labeled stereocilia. Apoptosis and cell proliferation events, on the other hand, were quantified by counting TUNEL- and EdU-positive cells, respectively. […] The number of HCs (IHCs and OHCs) is expressed as units per 200 μm. […] IHCs and OHCs were counted on reconstructed confocal stacks using NIH ImageJ v1.8.0 software. […] Reliability statistics were calculated in SPSS v22.0. […] Fluorescence incorporation following treatment with FM1-43 was quantified according to [19] using ImageJ. […]

[1] = system: mechanotransduction channel activity of neuromast HCs; assay: FM1-43 uptake in zebrafish neuromasts; format: in vivo, zebrafish (Danio rerio); conditions: 300 μM, 7 h, with or without 1 h recovery
Protocol: The styryl pyridinium dye FM1-43 provides an optical measure of mechanotransduction channel function and, therefore, was used as a proxy for the viability of the neuromast cells treated with QX-294 or QX-301, as well as indirect information on the functional capability of newly formed HCs. FM1-43FX (Thermo Scientific, Waltham, MA, USA) uptake experiments in zebrafish were performed as previously described. Zebrafish were incubated with E3 alone (control) or in the presence of Qx-294 or Qx-301, both at 300 μM, for 7 h and then immediately exposed to 3 μM FM1-43FX for 40 s. Alternatively, animals were transferred to a fresh E3 solution for 1 h and then exposed to the dye. For mouse treatment, 24, 48, and 72 h after animals were injected with […] Qx-294 or Qx-301, their cochleae were dissected, transiently exposed to FM1-43 FX dye (1 mg/mL) for 45 s, and then fixed in 4% PFA. All animals were P28 at completion of the treatment. Fluorescence incorporated was quantified according to [19] using ImageJ (ImageJ2 1.54r).

mouse auditory function = assay: Auditory brainstem response (ABR); format: in vivo, mice (Mus musculus); conditions: for ABR vs control, 24 h treatment / ABR hearing vs control: C57BL/6J mice; for ABR vs control, 24 h treatment: 24 h post-treatment; for ABR hearing vs control: greater benefits at higher frequencies and at 48 and 72 h, Two-Way ANOVA, p < 0.01; for Frequency at which modest improvement in hearing threshold begins: audiometric threshold shift (ABR/DPOAE) vs vehicle-only controls
Protocol: as §1
Mice from all groups underwent auditory brainstem response (ABR) and distortion product otoacoustic emissions (DPOAEs) tests before the initiation of treatment with either compounds or vehicle, and at 24, 48, and 72 h post-treatment, as described below. After audiometric testing, pre-treatment mice were placed in a warm and clean cage and monitored until they were awake and able to remain upright in a sternal position. Alternatively, post-treatment mice had their cochleae processed for histological examination.
Mice were anesthetized with a ketamine (18 mg/mL) and xylazine (2 mg/mL) solution (5–9 μL per gram body weight injected intraperitoneally). Core body temperature was maintained at 37.0 ± 0.1 C using a homeothermic heating pad system (FHC, Inc., Bowdoin, ME, USA). Tone burst stimuli were generated and controlled using Tucker Davis Technologies (TDT, Gainesville, FL, USA) System III (RX6, PA5 components). Tone bursts at 8, 16, 32, and 41.2 kHz had 1.0 ms rise-fall times with 1.0 ms plateau (3 ms total duration) and alternating stimulus polarity. Stimuli for ABR testing were calibrated using a Bruel & Kjaar type 4138 ¼” microphone and Nexus type 2691 conditioning amplifier. Stimuli were calibrated in dB peSPL and presented via high-frequency transducers (TDT SA1 driver, MF1 speakers) coupled at the ear via PE tubing. Auditory stimuli were presented at a rate of 17 stimuli per second.

| Compound | EdU-positive cells in the OC at 72 h (mouse organ of Corti) | EdU-positive cells in the OC at 24 h and 48 h (mouse organ of Corti) | FM1-43 fluorescence intensity in neuromasts vs control [1] | ABR vs control, 24 h treatment (mouse auditory function) | ABR hearing vs control (mouse auditory function) | Frequency at which modest improvement in hearing threshold begins (mouse auditory function) [kHz] |
| --- | --- | --- | --- | --- | --- | --- |
| c1ccc2nc(N3CCCC3)cnc2c1 [Qx-301, 2-(pyrrolidine)-quinoxaline] | no proliferating (EdU-positive) cells were observed | higher percentage of EdU-positive cells | no significant differences | no statistically significant differences | improved hearing for all test frequencies | ≥ 22.6 |
| c1ccc2nc(N3CCOCC3)cnc2c1 [Qx-294, 2-(morpholine)-quinoxaline] | no proliferating (EdU-positive) cells were observed | higher percentage of EdU-positive cells | no significant differences | no statistically significant differences | improved hearing for all test frequencies | ≥ 16 |
